Measurements taken from US9854804B2, “Antifungal composition comprising polycyclic peptide compound and method for preparing the same” (KOREAN RESEARCH INSTITUTE OF BIOSCIENCE AND BIOTECHNOLOGY, priority 2011, dated 2018).
In brackets after ≈: the same amount, converted by molar mass. Like-named read-outs stand apart in the source and are kept apart here.

Assays:
[1] = system: QRSA CCARM 3505; experiment: Broth microdilution antibacterial activity (MIC); format: cell-based, Quinolone-resistant Staphylococcus aureus; settings: Staphylococcus aureus, CCARM3505
Method: (§1) Test strains were maintained in MHB (Mueller Hinton broth), and antibacterial activity was measured using a broth microdilution method. After being incubated overnight, each of the test stains was diluted to a population of 2×100,000 cells/ml, and aliquoted in an amount of 100 μl per well into 96-well plates. Complestatin, neuroprotectin A and positive controls such as vancomycin, oxacillin and nofloxacin were treated at concentration with gradual dilution by 2-fold from maximum concentration of 128 μg/ml. Each compound was diluted in dimethylsulxoside (DMSO), and the concentration of DMSO was adjusted to approximately 1/100 before application. After incubation for 20 hrs, absorbance was read at 650 nm to examine the growth of bacterial cells.

[2] = system: QRSA CCARM 3519; experiment: Broth microdilution antibacterial activity (MIC); format: cell-based, Quinolone-resistant Staphylococcus aureus; settings: Staphylococcus aureus, CCARM3519
Method: as §1

[3] = system: Staphylococcus epidermidis KCTC 3958; experiment: Broth microdilution antibacterial activity (MIC); format: cell-based; settings: KCTC3958
Method: as §1

[4] = system: Entercoccus faecium KCTC 5191; experiment: Broth microdilution antibacterial activity (MIC); format: cell-based; settings: Enterococcus faecium, KCTC5191
Method: as §1

[5] = system: Bacillus cereus KCTC 1661; experiment: Broth microdilution antibacterial activity (MIC); format: cell-based; settings: KCTC1661
Method: as §1

[6] = system: Entercoccus faecium KCTC 3511; experiment: Broth microdilution antibacterial activity (MIC); format: cell-based; settings: Enterococcus faecium, KCTC3511
Method: as §1

[7] = system: Staphylococcus aureus 209; experiment: Broth microdilution antibacterial activity (MIC); format: cell-based
Method: as §1

[8] = system: Bacillus subtilis KCTC 1021; experiment: Broth microdilution antibacterial activity (MIC); format: cell-based; settings: KCTC1021
Method: as §1

[9] = system: Vancomycin-resistant S. aureus (VRSA) and Vancomycin-resistant Enterococcus (VRE); experiment: Antibacterial activity, vancomycin-resistant bacteria of Table 4; format: cell-based
Method: as §1
(§2) The compounds of the present invention, complestatin and neuroprotectin A were examined for antibacterial activity against vacomycin-resistant bacteria in the same manner as in Example 4, and the results are given in Table 4, below.

[10] = system: Staphylococcus aureus RN 4220; experiment: Broth microdilution antibacterial activity (MIC); format: cell-based
Method: as §1, §2

[11] = system: MRSA CCARM 3506; experiment: Broth microdilution antibacterial activity (MIC); format: cell-based, Methicillin-resistant Staphylococcus aureus; settings: Staphylococcus aureus
Method: as §1

[12] = system: MRSA CCARM 3167; experiment: Broth microdilution antibacterial activity (MIC); format: cell-based, Methicillin-resistant Staphylococcus aureus; settings: Staphylococcus aureus
Method: as §1

[13] = system: VRSA 48; experiment: Antibacterial activity against vancomycin-resistant bacteria (MIC); format: cell-based, Vancomycin-resistant S. aureus; settings: Staphylococcus aureus
Method: as §1, §2

[14] = system: VRE 3; experiment: as above; format: cell-based; settings: Enterococcus
Method: as §1, §2

[15] = system: VRE 7; experiment: as above; format: cell-based; settings: Enterococcus
Method: as §1, §2

[16] = system: VRE 11; experiment: as above; format: cell-based; settings: Enterococcus
Method: as §1, §2

[17] = system: Staphylococcus aureus, Bacillus subtilis, Bacillus cereus, Enterococcus faecium and Staphylococcus epidermis, MRSA, QRSA; experiment: Antibacterial activity, summary over the panel of Table 3; format: cell-based
Method: as §1

[18] = Staphylococcus epidermidis KCTC 3958, read-out: MIC
[19] = Entercoccus faecium KCTC 5191, read-out: MIC
[20] = Bacillus cereus KCTC 1661, read-out: MIC
[21] = Entercoccus faecium KCTC 3511, read-out: MIC
[22] = Staphylococcus aureus 209, 20 hrs incubation, MHB, read-out: MIC
[23] = Bacillus subtilis KCTC 1021, read-out: MIC
[24] = against VRSA and VRE (text summary of Table 4), read-out: MIC
[25] = RN4220, Staphylococcus aureus RN 4220, Table 3, read-out: MIC

| SMILES | MIC ([1]; QRSA CCARM 3505, read-out: MIC) | MIC ([2]; QRSA CCARM 3519, read-out: MIC) | MIC [3, 18] | MIC [4, 19] | MIC [5, 20] | MIC [6, 21] | MIC [7, 22] | MIC [8, 23] | MIC [9, 24] | MIC [10, 25] | MIC ([10]; S. aureus RN 4220, Table 4) | MIC ([11]; MRSA CCARM 3506, read-out: MIC) | MIC ([12]; MRSA CCARM 3167, read-out: MIC) | MIC ([13]; VRSA 48, read-out: MIC) | MIC ([14]; VRE 3, read-out: MIC) | MIC ([15]; VRE 7, read-out: MIC) | MIC ([16]; VRE 11, read-out: MIC) | MIC [17] | also measured |
| --- | --- | --- | --- | --- | --- | --- | --- | --- | --- | --- | --- | --- | --- | --- | --- | --- | --- | --- | --- |
| Cc1onc(-c2ccccc2)c1C(=O)N[C@@H]1C(=O)N2[C@@H]1SC(C)(C)[C@@H]2C(=O)O [Oxacillin] | 0.5 µg/mL (≈ 1.25 µM) | 0.5 µg/mL (≈ 1.25 µM) | 0.25 µg/mL (≈ 0.623 µM) | 4 µg/mL (≈ 9.96 µM) | 32 µg/mL (≈ 79.7 µM) | 8 µg/mL (≈ 19.9 µM) | 0.25 µg/mL (≈ 0.623 µM) | 0.25 µg/mL (≈ 0.623 µM) | > 200 µg/mL | 0.25 µg/mL (≈ 0.623 µM) | 0.25 µg/mL (≈ 0.623 µM) | 500 µg/mL (≈ 1250 µM) | 500 µg/mL (≈ 1250 µM) | > 200 µg/mL | > 200 µg/mL | > 200 µg/mL | > 200 µg/mL |  |  |
| CN1C(=O)C(c2cc(Cl)c(O)c(Cl)c2)NC(=O)C2NC(=O)C(c3cc(Cl)c(O)c(Cl)c3)NC(=O)C(NC(=O)C(=O)c3cc(Cl)c(O)c(Cl)c3)CC3C(=O)Nc4cc(ccc43)-c3cc2cc(c3O)Oc2ccc(cc2)CC1C(=O)NC(C(=O)O)c1ccc(O)cc1 (centres unmarked) [Neuroprotectin A] | 1 µg/mL (≈ 0.744 µM) | 2 µg/mL (≈ 1.49 µM) | 2 µg/mL (≈ 1.49 µM) | 2 µg/mL (≈ 1.49 µM) | 0.5 µg/mL (≈ 0.372 µM) | 2 µg/mL (≈ 1.49 µM) | 2 µg/mL (≈ 1.49 µM) | 0.5 µg/mL (≈ 0.372 µM) | 1 µg/mL (≈ 0.744 µM) | 1 µg/mL (≈ 0.744 µM) | 1 µg/mL (≈ 0.744 µM) | 1 µg/mL (≈ 0.744 µM) | 1 µg/mL (≈ 0.744 µM) | 1 µg/mL (≈ 0.744 µM) | 1 µg/mL (≈ 0.744 µM) | 1 µg/mL (≈ 0.744 µM) | 1 µg/mL (≈ 0.744 µM) | 0.5 to 2 µg/mL (≈ 0.372 to 1.49 µM) |  |
| CN1C(=O)C(c2cc(Cl)c(O)c(Cl)c2)NC(=O)C2NC(=O)C(c3cc(Cl)c(O)c(Cl)c3)NC(=O)C(NC(=O)C(=O)c3cc(Cl)c(O)c(Cl)c3)Cc3c[nH]c4cc(ccc34)-c3cc2cc(c3O)Oc2ccc(cc2)CC1C(=O)NC(C(=O)O)c1ccc(O)cc1 (centres unmarked) [Complestatin] | 1 µg/mL (≈ 0.753 µM) | 2 µg/mL (≈ 1.51 µM) | 2 µg/mL (≈ 1.51 µM) | 2 µg/mL (≈ 1.51 µM) | 0.5 µg/mL (≈ 0.376 µM) | 2 µg/mL (≈ 1.51 µM) | 2 µg/mL (≈ 1.51 µM) | 0.5 µg/mL (≈ 0.376 µM) | 1 µg/mL (≈ 0.753 µM) | 1 µg/mL (≈ 0.753 µM) | 1 µg/mL (≈ 0.753 µM) | 1 µg/mL (≈ 0.753 µM) | 1 µg/mL (≈ 0.753 µM) | 1 µg/mL (≈ 0.753 µM) | 1 µg/mL (≈ 0.753 µM) | 1 µg/mL (≈ 0.753 µM) | 1 µg/mL (≈ 0.753 µM) | 0.5 to 2 µg/mL (≈ 0.376 to 1.51 µM) |  |
| CN[C@H](CC(C)C)C(=O)N[C@H]1C(=O)N[C@@H](CC(N)=O)C(=O)N[C@H]2C(=O)N[C@H]3C(=O)N[C@H](C(=O)N[C@H](C(=O)O)c4cc(O)cc(O)c4-c4cc3ccc4O)[C@H](O)c3ccc(c(Cl)c3)Oc3cc2cc(c3O[C@@H]2O[C@H](CO)[C@@H](O)[C@H](O)[C@H]2O[C@H]2C[C@](C)(N)[C@H](O)[C@H](C)O2)Oc2ccc(cc2Cl)[C@H]1O [Vancomycin] |  |  |  |  |  |  |  |  |  |  | 1 µg/mL (≈ 0.69 µM) |  |  |  |  |  |  |  | MIC [1]: 1 µg/mL (≈ 0.69 µM); MIC [2]: 1 µg/mL (≈ 0.69 µM); MIC ([3]; Staphylococcus epidermidis): 2 µg/mL (≈ 1.38 µM); MIC [4]: 1 µg/mL (≈ 0.69 µM); MIC ([5]; Bacillus cereus): 1 µg/mL (≈ 0.69 µM); MIC [6]: 2 µg/mL (≈ 1.38 µM); MIC ([7]; Staphylococcus aureus, 209, 20 h): 0.5 µg/mL (≈ 0.345 µM); MIC ([8]; Bacillus subtilis): 0.125 µg/mL (≈ 0.0863 µM); MIC ([9]; VRE): > 200 µg/mL; MIC ([10]; Staphylococcus aureus, RN4220): 1 µg/mL (≈ 0.69 µM); MIC [11]: 0.5 µg/mL (≈ 0.345 µM); MIC [12]: 2 µg/mL (≈ 1.38 µM); MIC ([13]; VRSA): > 200 µg/mL; MIC ([14]; VRE): > 200 µg/mL; MIC ([15]; VRE): > 200 µg/mL; MIC ([16]; VRE): > 200 µg/mL |
| CCn1cc(C(=O)O)c(=O)c2cc(F)c(N3CCNCC3)cc21 [Norfloxacin] | 250 µg/mL (≈ 783 µM) | 125 µg/mL (≈ 391 µM) | 0.5 µg/mL (≈ 1.57 µM) | 4 µg/mL (≈ 12.5 µM) | 1 µg/mL (≈ 3.13 µM) | 4 µg/mL (≈ 12.5 µM) | 0.25 µg/mL (≈ 0.783 µM) | 0.25 µg/mL (≈ 0.783 µM) |  | 1 µg/mL (≈ 3.13 µM) | 1 µg/mL (≈ 3.13 µM) | 1 µg/mL (≈ 3.13 µM) | 8 µg/mL (≈ 25.1 µM) | 200 µg/mL (≈ 626 µM) | 50 µg/mL (≈ 157 µM) | 50 µg/mL (≈ 157 µM) | 200 µg/mL (≈ 626 µM) |  |  |
